{
  "source": "patent US20220127297A1",
  "about": "“Novel Antibacterial 3\"-Derivatives Of 4,6-Disubstituted 2,5-Dideoxystreptamine Aminoglycoside Antibiotics” (AGILeBiotics B.V., priority 2018, published 2022)",
  "key": {"E. coli (APH(3′)Ia)": {"tested_on": "E. coli (APH(3′)Ia)", "experiment": "MIC 50, broth micro-dilution, E. coli expressing APH(3′)Ia", "format": "cell-based, Escherichia coli", "conditions": "Escherichia coli, ATCC25922, ATCC25922 harboring plasmid encoding APH(3′)Ia", "procedure": "(§1) Plasmid transformation. Approximately 500 ng of the pET-9b(+) (Cat. No. 69432-3, Merck), pAT21-1 (provided by Prof. Dr. Patrice Courvalin, M.D., Pasteur Institute, France; prepared according to Trieu-Cuot et. al, Mol. Gen. Genet. 198(2), 348 (1985)), pBluescript::AAC(6′)-Ie/APH(2″)-Ia (provided by Prof. Dr. Sergei Vakulenko, M.D., University of Notre Dame, Ind., USA; prepared according to S. B. Vakulenko et. al., J. Biol. Chem. 287 (52), 43262 (2012)), pBlue_lpp_aacC3_rrnC and pSET152 (Cat. No. PVT3395, Life Science Market; prepared according to Bierman et al., Gene 116 (1), 43 (1992)) plasmids, encoding APH(3′)-Ia (SEQ ID NO:2), APH(3′)-IIIa (SEQ ID NO:3), AAC(6′)Ie-APH(2″)-Ia (SEQ ID NO:4), AAC(3)-III (SEQ ID NO:1), and AAC(3)-IV (SEQ ID NO:5) respectively, were individually incubated in a vial of competent cells for 15 min on ice. The cells were subsequently heated to 42° C. for 90 s, and cooled on ice for 1 min. After addition of 900 μL LB, the cells were incubated for 1 h at 37° C. and 200 rpm. Cells were plated on LB-agar supplemented with 50 μg/mL KanaA and incubated for 18 h at 37° C. The next day, a single colony was inoculated in 5 mL LB supplemented with 50 μg/mL and grown for 18 h at 37° C. and 200 rpm. A 200 μL sample of each culture was diluted with 200 μL of 40% v/v glycerol in water, and stored at −80° C. The plasmid was purified from the remaining culture using the Plasmid Miniprep kit. Plasmid DNA was investigated by Eurofins Genomics (Germany) to confirm the identity of the aminoglycoside resistance genes.\n(§2) 3.1 Against E. coli Strains\n(§3) Tested reference compounds. Amikacin sulfate (Cat. No. 01693, Chem-Impex), Gentamicin sulfate (Cat. No. G4918, Sigma Aldrich).\n(§4) Microbial strains. E. coli ATCC 25922, E. coli ATCC 25922/pET-9b(+), E. coli ATCC 25922/pAT21-1, E. coli ATCC 25922/pBluescript::AAC(6′)-Ie/APH(2″)-Ia, E. coli ATCC 25922/pBlue_lpp_aacC3_rrnC, E. coli ATCC 25922/pSET152.\n(§5) Culture media and equipment. BBL™ Mueller Hinton Broth 2 (Lot. BCBW1143, Cat. No. 70192, Sigma); Kanamycin A (Cat. No. A1493, AppliChem); 96-well deep well plate, 1 mL (Cat. No. 0030506.200, Eppendorf); Plate lids (Cat. No. 0030131.525, Eppendorf); 96-well plate, F-bottom (Cat. No. 781602, Brand; Incubator, Infors Multitron Pro); Laminar flow (Heraeus KS12); UV/VIS meter (Eppendorf BioPhotometer Plus); Platereader (Tecan Sunrise).\n(§6) Compound preparation. Compounds were prepared in MH2 media at a concentration of 5 mM and stored at 4° C. For testing, solutions of 128 μM were prepared in MH2. Out of these working solutions, 400 μL was transferred to wells in the first column of 96-well deep well plates. Each compound was transferred in triplicate. Plates were previously filled with 200 μL of MH2 media in all wells except for the wells in the first column. After compound and antibiotic addition, the compounds were serial two-fold diluted by transferring 200 μL from the first to the second column, then from the second to the third column and so on. Finally, 200 μL was removed from the last column.\n(§7) Inoculum preparation. Microorganisms used were all revived from 20% glycerol (40% v/v glycerol in water was diluted with MH2) storage at −80° C. by inoculating them in 5 mL MH2. inoculums of E. coli containing a plasmid were selected for by adding 50 μg/mL KanaA. The Inoculums were grown to an optical density (measured by UV/Vis spectroscopy) of 0.6-0.8 at 600 nm. Out of these suspensions, actual inoculums were prepared by diluting them to an optical density (OD) of 0.1 in MH2 media. From these inoculums, 200 μL was transferred to each well, resulting in a final compound concentration range of 64 μM-31.3 nM. All plates were incubated at 900 rpm and 70% rH for 18 h at 37° C.\n(§8) MIC determination. After 18 h of growth, 200 μL was transferred to a 96-well F-bottom plate. The optical density was determined by a plate reader at 600 nm, with 10 s shaking before reading. Triplicate measurements were averaged, and a growth curve was plotted in Microsoft Excel. […]"}, "[1]": {"tested_on": "E. coli (AAC(6′)Ie-APH(2″)Ia)", "experiment": "MIC 50, broth micro-dilution, E. coli expressing AAC(6′)Ie-APH(2″)Ia", "format": "cell-based, Escherichia coli", "conditions": "Escherichia coli, ATCC25922, ATCC25922 harboring plasmid encoding AAC(6′)Ie-APH(2″)Ia", "procedure": "as §1, §2, §3, §4, §5, §6, §7, §8"}, "E. coli ATCC25922 strain": {"tested_on": "E. coli ATCC25922 strain", "experiment": "MIC 50, broth micro-dilution, wild-type Escherichia coli", "format": "cell-based", "conditions": "Escherichia coli, ATCC25922, 18 h, MH2, 18 h", "text": "as §2, §3, §4, §5, §6, §7\nMIC determination. After 18 h of growth, 200 μL was transferred to a 96-well F-bottom plate. The optical density was determined by a plate reader at 600 nm, with 10 s shaking before reading. Triplicate measurements were averaged, and a growth curve was plotted in Microsoft Excel. The first column in which the growth reached half the value of maximum growth was determined as the MIC50 value for that particular compound.\nMIC50. The MIC50 of a compound was assigned at which the bacterial growth reached half the value of maximum growth."}, "E. coli (AAC(3)III)": {"tested_on": "E. coli (AAC(3)III)", "experiment": "MIC 50, broth micro-dilution, E. coli expressing AAC(3)III", "format": "cell-based, Escherichia coli", "conditions": "Escherichia coli, ATCC25922, ATCC25922 harboring plasmid encoding AAC(3)III", "text": "Cloning resistant enzymes. An Escherichia coli codon optimized gene encoding AAC(3)-III (GenBank acc.nr. X55652.1; SEQ ID NO:1), including a promoter and terminator sequence, was synthesized by Integrated DNA Technologies, Belgium. The synthesized gene and pBluescript II KS(+) plasmid were digested using the restriction enzymes SacI and SalI, and purified from a 1% TBE-agarose gel using the illustra Gel Band purification kit. The purified linear plasmid and T4 DNA ligase were used to ligate aac(3)-III under control of the constitutive lipoprotein Ipp promoter and ribosomal RNA rrnC terminator, resulting in pBlue_Ipp_aacC3_rrnC.\nas §1, §2, §3, §4, §5, §6\nInoculum preparation. Microorganisms used were all revived from 20% glycerol (40% v/v glycerol in water was diluted with MH2) storage at −80° C. by inoculating them in 5 mL MH2. inoculums of E. coli containing a plasmid were selected for by adding 50 μg/mL KanaA."}, "E. coli (APH(3′)IIIa)": {"tested_on": "E. coli (APH(3′)IIIa)", "experiment": "MIC 50, broth micro-dilution, E. coli expressing APH(3′)IIIa", "format": "cell-based, Escherichia coli", "conditions": "Escherichia coli, ATCC25922, ATCC25922 harboring plasmid encoding APH(3′)IIIa", "procedure": "as §1, §2, §3, §4, §5, §6, §7, §8"}, "E. coli (AAC(3)IV)": {"tested_on": "E. coli (AAC(3)IV)", "experiment": "MIC 50, broth micro-dilution, E. coli expressing AAC(3)IV", "format": "cell-based, Escherichia coli", "conditions": "Escherichia coli, ATCC25922, ATCC25922 harboring plasmid encoding AAC(3)IV", "procedure": "as §1, §2, §3, §4, §5, §6, §7, §8"}},
  "data": [
    {"smiles": "N=C(NC[C@H]1CCCNC1)NC1[C@@H](O)C(OC2[C@@H](F)[C@H](O[C@H]3OC(CN)[C@@H](O)CC3N)C(N)C[C@H]2NC(=O)[C@@H](O)CCN)O[C@H](CO)[C@H]1O", "note": "(stereo partly drawn) [ABX5044, Tobra-AHB-F-Gua (S) piperidin-3-yl methyl]", "values": [
      {"measurement": "MIC50", "setting": "E. coli (APH(3′)Ia)", "value": "0.5 to 1", "unit": "µM"},
      {"measurement": "MIC50", "setting": "[1]", "value": 0.5, "unit": "µM"},
      {"measurement": "MIC50", "setting": "E. coli ATCC25922 strain", "value": 0.5, "unit": "µM"},
      {"measurement": "MIC50", "setting": "E. coli (AAC(3)III)", "value": 0.5, "unit": "µM"},
      {"measurement": "MIC50", "setting": "E. coli (APH(3′)IIIa)", "value": 0.5, "unit": "µM"},
      {"measurement": "MIC50", "setting": "E. coli (AAC(3)IV)", "value": 2, "unit": "µM"}
    ]}
  ]
}
